The source of these data is ChEMBL document CHEMBL5053501, “1,4,9-Triazaspiro[5.5]undecan-2-one Derivatives as Potent and Selective METTL3 Inhibitors” (J Med Chem, 2021).

Structures are written as SMILES. Values after ≈ are worked out from the molar mass of the structure shown. Active and inactive are the calls of the source. No cut-off for these calls is given here.

Data set [1] can be described thus: Metabolic stability in rat liver microsomes assessed as half life by LC-MS analysis. Type of data set: ADME, Microsome. On the technique in general: Liver microsomes are a subcellular fraction often used to study metabolism.
A short description of data set [2]: Kinetic solubility of the compound in PBS at pH 7.4 at 100 uM incubated for 1 hr by LCMS/MS analysis. Type of data set: physicochemical. The following applies: read-out: Kinetic_solubility.
Data set [3] concerns the target N6-adenosine-methyltransferase catalytic subunit (Homo sapiens, UniProt Q86U44). The experiment in a line: Inhibition of recombinant […] (unknown origin) expressed in baculovirus infected Sf9 cells assessed as decrease in N6-methyladenosine level in oligonucleotide substrate by TR-FRET assay. In general terms: Time-resolved FRET reads energy transfer from a long-lived donor to a nearby acceptor.

For data set [4], the species on record is Homo sapiens. The experiment in a line: Binding affinity to human METTL16 assessed as change in melting temperature at 100 uM by thermal shift assay.
Data set [5] is filed under the species Homo sapiens. The experiment in a line: Binding affinity to human METTL1 assessed as change in melting temperature at 100 uM by thermal shift assay.
The subject of data set [6] is MOLM-13. Kind of data set: Reduction in m7G levels in mRNA fraction in human MOLM-13 cells at 10 uM measured after 6 days by UPLC-MS/MS analysis. Type of data set: functional, cell-based. Particulars: time 6.0 day.
The test system of data set [7] is MOLM-13. Kind of data set: Growth inhibition of human MOLM-13 cells assessed as cell viability measured after 3 days. The following applies: MOLM-13, 72 h, time 3 day. Type of data set: functional.
Data set [8] deals with T1, METTL3/METTL14 (Homo sapiens) (UniProt Q86U44+Q9HCE5). The following applies: dose 100.0 µM.
Data set [9] concerns MOLM-13. Kind of data set: Effect on METTL3 expression in human MOLM-13 cells at 10 uM incubated for 16 hrs by Western blotting analysis. Type of data set: functional, cell-based. A general note: In western blotting, separated proteins are transferred to a membrane and probed.
Data set [10] has as its system MOLM-13. Kind of data set: Reduction in m1A levels in mRNA fraction in human MOLM-13 cells at 10 uM measured after 6 days by UPLC-MS/MS analysis. Type of data set: functional, cell-based. Particulars: time 6.0 day.
Data set [11] has as its system MOLM-13. Kind of data set: Reduction in m6A levels in mRNA fraction in human MOLM-13 cells at 10 uM measured after 6 days by UPLC-MS/MS analysis. Type of data set: functional, cell-based. The following applies: time 6.0 day.
The subject of data set [12] is MOLM-13. Kind of data set: Reduction in m6A levels in total RNA fraction in human MOLM-13 cells at 10 uM measured after 6 days by UPLC-MS/MS analysis. Type of data set: functional, cell-based. The following applies: time 6.0 day.
The test system of data set [13] is PC-3. The experiment in a line: Effect on METTL3 expression in human PC-3 cells at 10 uM incubated for 16 hrs by Western blotting analysis. Type of data set: functional, cell-based.
A short description of data set [14]: Reduction in m6A/A ratio in poly-adenylated RNA fraction of human MOLM-13 cells measured after 16 hrs by UPLC-MS/MS analysis. Type of data set: functional, cell-based.
For data set [15], the system named is MOLM-13. Kind of data set: Reduction in m6Am levels in total RNA fraction in human MOLM-13 cells at 10 uM measured after 6 days by UPLC-MS/MS analysis. Type of data set: functional, cell-based. Particulars: time 6.0 day.
Data set [16] concerns PC-3. The experiment in a line: Growth inhibition of human PC-3 cells assessed as cell viability measured after 3 days. Type of data set: functional. Particulars: PC-3, 72 h, time 3 day.
For data set [17], the target named is T1, METTL3/METTL14 (Homo sapiens). Particulars: dose 1000.0 µM.
For data set [18], the species on record is Homo sapiens. The experiment in a line: Binding affinity to human METTL1 assessed as change in melting temperature at 1000 uM by thermal shift assay.
The species named for data set [19] is Homo sapiens. Kind of data set: Binding affinity to human METTL16 assessed as change in melting temperature at 1000 uM by thermal shift assay.

Chain of N6-adenosine-methyltransferase catalytic subunit (Q86U44 whole entry): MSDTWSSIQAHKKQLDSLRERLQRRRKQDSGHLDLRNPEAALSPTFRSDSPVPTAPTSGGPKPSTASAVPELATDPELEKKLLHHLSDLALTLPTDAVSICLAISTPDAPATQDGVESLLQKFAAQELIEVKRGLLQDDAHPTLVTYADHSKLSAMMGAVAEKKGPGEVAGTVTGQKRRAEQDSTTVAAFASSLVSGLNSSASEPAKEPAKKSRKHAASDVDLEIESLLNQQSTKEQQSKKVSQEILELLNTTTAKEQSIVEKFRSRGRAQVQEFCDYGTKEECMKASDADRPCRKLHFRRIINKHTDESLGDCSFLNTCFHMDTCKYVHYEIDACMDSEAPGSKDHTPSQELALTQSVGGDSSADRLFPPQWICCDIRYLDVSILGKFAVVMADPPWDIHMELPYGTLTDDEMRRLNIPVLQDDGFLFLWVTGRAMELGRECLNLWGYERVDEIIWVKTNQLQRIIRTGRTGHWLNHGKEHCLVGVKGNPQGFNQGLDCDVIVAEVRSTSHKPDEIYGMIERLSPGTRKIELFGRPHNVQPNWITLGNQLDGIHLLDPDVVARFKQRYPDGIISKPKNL

For orientation: half-life means the time in which the quantity being followed falls by half. Consider `CC1(C)CCN(Cc2ccc(N3CC(=O)NC4(CCN(c5nc(Cl)nc6[nH]ccc56)CC4)C3)cc2)CC1`, for which the half-life in data set [1] was 32 min. For the same compound, the solubility kinetic at 1 h, 100 µM in data set [2] worked out at 45 µM (≈ 23.5 µg/mL).
In general, IC50 refers to the midpoint of a concentration-inhibition curve. Regarding `CNc1cc(N2CCCC(O)(CNC(=O)c3ccc(CN4CCC(C)(C)CC4)cc3)C2)ncn1` (configuration not stated), the IC50 in data set [3] worked out at 7 µM.
What is called GI50 is the concentration at which growth is held to half of that of the control. Broadly, the ΔTm is the shift of the melting midpoint relative to a reference. Broadly, the EC50 is the concentration giving half of the maximal effect. Consider `CNc1cc(N2CCC3(CC2)CN(c2cc(F)c(CN4CCC(C)(C)CC4)cc2F)CC(=O)N3)ncn1`, for which the deltaTm result in data set [4] and in [5] was “inactive” each time. Also, the result in data set [6] and in data set [10] was inactive. The GI50 in [7] was 12 µM; in [16], 70 µM. The ΔTm in [8] came to 4.7 °C. Besides, the result in [9], in data set [11], in [12], in data set [13] and in [15] was Active. For the same compound, the EC50 in data set [14] stood at 0.7 µM.
Consider `CNc1cc(N2CC3(CN(c4ccc(CN5CCC(C)(C)CC5)cc4)CC(=O)N3)C2)ncn1`, for which the half-life in [1] came to 70 min. In addition, in [2], the solubility kinetic at 1 h, 100 µM is 86 µM (≈ 38.7 µg/mL).
For `Nc1ncnc2c1ncn2[C@@H]1O[C@H](CSCC[C@H](N)C(=O)O)[C@@H](O)[C@H]1O` [S-ADENOSYLHOMOCYSTEINE], the ΔTm was 3.7 °C in data set [17], 6.3 °C in data set [18] and 0.8 °C in data set [19]. In addition, in [3], the IC50 came out at 0.59 µM.
